# Biological target: T1, CIITA (Homo sapiens, UniProt P33076, G420A/G425A/K426E)
# T1 sequence (P33076 1-1130 G420A/G425A/K426E): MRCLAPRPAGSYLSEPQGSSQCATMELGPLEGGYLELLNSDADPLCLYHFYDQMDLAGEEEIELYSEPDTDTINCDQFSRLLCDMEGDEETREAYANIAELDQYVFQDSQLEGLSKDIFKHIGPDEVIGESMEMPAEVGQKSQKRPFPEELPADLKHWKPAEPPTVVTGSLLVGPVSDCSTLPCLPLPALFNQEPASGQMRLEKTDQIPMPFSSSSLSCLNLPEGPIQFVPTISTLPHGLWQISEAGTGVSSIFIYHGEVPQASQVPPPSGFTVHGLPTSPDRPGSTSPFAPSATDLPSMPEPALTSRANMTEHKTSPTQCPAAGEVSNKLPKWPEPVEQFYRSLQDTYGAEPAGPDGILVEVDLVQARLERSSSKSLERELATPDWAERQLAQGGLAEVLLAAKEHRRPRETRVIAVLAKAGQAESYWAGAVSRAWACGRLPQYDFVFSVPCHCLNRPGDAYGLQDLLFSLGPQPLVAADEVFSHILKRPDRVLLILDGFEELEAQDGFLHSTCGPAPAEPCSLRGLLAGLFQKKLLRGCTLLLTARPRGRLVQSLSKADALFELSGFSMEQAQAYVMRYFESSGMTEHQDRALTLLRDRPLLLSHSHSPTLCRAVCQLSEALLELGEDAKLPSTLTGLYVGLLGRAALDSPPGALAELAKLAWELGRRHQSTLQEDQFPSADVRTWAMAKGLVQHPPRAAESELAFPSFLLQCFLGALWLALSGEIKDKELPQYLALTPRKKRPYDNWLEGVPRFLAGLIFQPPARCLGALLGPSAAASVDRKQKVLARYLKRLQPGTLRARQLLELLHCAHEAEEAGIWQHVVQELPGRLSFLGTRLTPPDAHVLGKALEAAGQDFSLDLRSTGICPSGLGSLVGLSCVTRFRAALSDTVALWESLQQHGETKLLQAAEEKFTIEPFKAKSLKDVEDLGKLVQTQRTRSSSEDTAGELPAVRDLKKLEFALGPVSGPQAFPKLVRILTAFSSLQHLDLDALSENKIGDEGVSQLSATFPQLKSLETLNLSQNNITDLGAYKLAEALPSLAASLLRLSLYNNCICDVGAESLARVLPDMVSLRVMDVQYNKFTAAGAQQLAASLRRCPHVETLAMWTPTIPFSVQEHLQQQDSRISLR
# Test: […] autophosphorylation kinase assay, SDS-PAGE, phosphorimager
# Assay type: biochemical
# Details: labelled compound; 5 mM MnCl2, 5 mM MgCl2, pH 7.5, 30 °C
smiles,measurement,value
Nc1ncnc2c1ncn2[C@@H]1O[C@H](COP(=O)(O)OP(=O)(O)OP(=O)(O)O)[C@@H](O)[C@H]1O [ATP],"32P autophosphorylation kinase assay, SDS-PAGE, phosphorimager",No loss of kinase activity was detected in the putative ATP binding site mutant

# From PMC3816002 (Biochimica et biophysica acta, 2013)
